The first test addresses T1, human mGluR2 receptor (Homo sapiens, UniProt Q14416).
T1 construct: expressed in transfected cells
Briefly: [35S]-GTPγS binding assay of mGluR2 receptor activation. Type of test: biochemical.
Settings: not given
The procedure, abridged: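 CHO membranes stably expressing human mGluR2 (30 μg) preincubated 15 min at room temperature with compound (3 nM–300 μM), then 1 μM glutamate, 30 μM GDP, 0.1 nM [35S]-GTPγS, 30 min at 30° C in HEPES/NaCl/MgCl2. Filtration counting; EC50 and Emax relative to maximal glutamate effect by non-linear regression.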
T1 sequence (Q14416 19-872): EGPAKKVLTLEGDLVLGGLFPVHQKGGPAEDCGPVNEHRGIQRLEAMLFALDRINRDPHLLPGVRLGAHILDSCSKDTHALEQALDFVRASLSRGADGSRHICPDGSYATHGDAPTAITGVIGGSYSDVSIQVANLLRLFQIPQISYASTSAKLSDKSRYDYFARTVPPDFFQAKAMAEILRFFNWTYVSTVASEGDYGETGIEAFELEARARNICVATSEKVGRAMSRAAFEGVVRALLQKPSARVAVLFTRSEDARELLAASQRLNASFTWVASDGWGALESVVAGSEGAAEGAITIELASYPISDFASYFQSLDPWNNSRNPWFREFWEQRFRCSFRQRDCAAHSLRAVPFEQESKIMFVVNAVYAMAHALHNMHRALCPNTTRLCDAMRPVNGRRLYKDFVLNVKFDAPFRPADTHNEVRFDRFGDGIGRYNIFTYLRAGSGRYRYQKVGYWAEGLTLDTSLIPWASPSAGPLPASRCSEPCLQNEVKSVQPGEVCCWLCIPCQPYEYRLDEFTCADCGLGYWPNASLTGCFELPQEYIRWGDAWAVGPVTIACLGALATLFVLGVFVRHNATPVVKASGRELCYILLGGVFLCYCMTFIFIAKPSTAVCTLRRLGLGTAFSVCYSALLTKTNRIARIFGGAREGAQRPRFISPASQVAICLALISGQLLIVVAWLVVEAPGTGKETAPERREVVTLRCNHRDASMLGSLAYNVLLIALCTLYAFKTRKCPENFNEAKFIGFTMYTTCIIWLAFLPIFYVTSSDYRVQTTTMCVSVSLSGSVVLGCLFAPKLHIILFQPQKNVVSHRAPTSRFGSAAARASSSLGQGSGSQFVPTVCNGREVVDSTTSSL
One may read the EC50 as the midpoint of the concentration-response curve. Low values mean higher potency in that assay, high ones lower potency in that assay. `CNCc1nnc(-c2cc(C)c3c(c2)CN(Cc2ccc(OC(F)(F)F)cc2)C3=O)o1` [Example 181, 7-Methyl-5-(5-methylaminomethyl-[1,3,4]oxadiazol-2-yl)-2-(4-trifluorometh-oxy-benzyl)-2,3-dihydro-isoindol-1-one] had an EC50 of 2120 nM.

Still in this test, the particulars now being: membranes from CHO cells stably expressing human mGluR2; 1 μM glutamate.
In turn, `Cc1cc(CN2CCC(CCCc3ccc(-n4ccnc4)cc3)CC2)cc2c1C(=O)N(Cc1ccc(OC(F)(F)F)cc1)C2` [Example 55, 5-{4-[3-(4-Imidazol-1-yl-phenyl)-propyl]-piperidin-1-ylmethyl}-7-methyl-2-(4-trifluoromethoxy-benzyl)-2,3-dihydroisoindol-1-one] yielded an EC50 of 20 nM. On the same count and under the same terms, under `Cc1cc(-c2ccncc2)cc2c1C(=O)N(Cc1ccc(OC(F)(F)F)cc1)C2` [Example 96, 7-Methyl-5-pyridin-4-yl-2-(trifluoromethoxybenzyl)-2,3-dihydroisoindol-1-one] stands 130 nM; under `Cc1cc(N2CCN(CCCN(C)C)CC2)cc2c1C(=O)N(Cc1ccc(OC(F)(F)F)cc1)C2` [Example 141, 5-[4-(3-Dimethylamino-propyl)-piperazin-1-yl]-7-methyl-2-(4-trifluoro-methoxy-benzyl)-2,3-dihydro-isoindol-1-one], 750 nM; under `Cc1cc(CNCC(C)O)cc2c1C(=O)N(Cc1ccc(OC(F)(F)F)cc1)C2` (stereo not drawn) [Example 52, 5-[(2-Hydroxy-propylamino)-methyl]-7-methyl-2-(4-trifluoromethoxy-benzyl)-2,3-dihydro-isoindol-1-one], 7020 nM.

On to `Cc1ccc(CN2Cc3cc(-c4cccnc4)ccc3C2=O)cc1` [Example 94, 2-(4-Methylbenzyl)-5-pyridin-3-yl-2,3-dihydroisondol-1-one], for which the EC50 was 2760 nM. `Cc1cc(N2CCN(Cc3ccncc3)CC2)cc2c1C(=O)N(Cc1ccc(Cl)cc1)C2` [Example 143, 2-(4-Chloro-benzyl)-7-methyl-5-(4-pyridin-4-ylmethyl-piperazin-1-yl)-2,3-dihydro-isoindol-1-one] yielded an EC50 of 420 nM. On the same count and under the same terms, under `O=C1c2c(Cl)cc(-c3cccnc3)cc2CN1Cc1ccc(OC(F)(F)F)cc1` [Example 105, 7-Chloro-5-pyridin-3-yl-2-(4-trifluoromethoxy-benzyl)-2,3-dihydro-isoindol-1-one] stands 50 nM. On the same count and under the same terms, under `Cc1cc(N2CCC(N(C)C)C2)cc2c1C(=O)N(Cc1ccc(Oc3ccccc3)cc1)C2` (stereo not drawn) [Example 130, 5-(3-Dimethylamino-pyrrolidin-1-yl)-7-methyl-2-(4-phenoxy-benzyl)-2,3-dihydro-isoindol-1-one] stands 100 nM; under `Cc1cc(N2CCCN(C)CC2)cc2c1C(=O)N(Cc1ccc(OC(F)(F)F)cc1)C2` [Example 113, 7-Methyl-5-(4-methyl-[1,4]-diazepan-1-yl)-2-(4-trifluoromethoxy-benzyl)-2,3-dihydroisoindol-1-one], 1210 nM. Same read-out and setting: under `Cc1cc(CNCc2ccccc2)cc2c1C(=O)N(Cc1ccc(OC(F)(F)F)cc1)C2` [Example 45, 5-(Benzylamino-methyl)-7-methyl-2-(4-trifluoromethoxy-benzyl)-2,3-dihydro-isoindol-1-one] stands 390 nM; under `Cc1ccc(CN2Cc3cc(C4=CCN(C)CC4)ccc3C2=O)cc1` [Example 89], 9720 nM; under `O=C1c2c(Cl)cc(N3CCN4CCCC4C3)cc2CN1Cc1ccc(Cl)cc1` (stereo not drawn) [Example 134, 7-Chloro-2-(4-chloro-benzyl)-5-(hexahydro-pyrrolo[1,2-a]pyrazin-2-yl)-2,3-dihydro-isoindol-1-one], 610 nM. `CN(C)C1CCN(c2cc(Cl)c3c(c2)CN(Cc2ccc(Cl)cc2)C3=O)C1` (stereo not drawn) [Example 135, 7-Chloro-2-(4-chloro-benzyl)-5-(3-dimethylamino-pyrolidin-1-yl)-2,3-dihydro-isoindol-1-one] yielded an EC50 of 610 nM. On the same count and under the same terms, the result for `O=C1c2c(Cl)cc(Br)cc2CN1Cc1ccc(OC(F)(F)F)cc1` [Example 33, 5-Bromo-7-chloro-2-(4-trifluoromethoxy-benzyl)-2,3-dihydro-isoindol-1-one] reads 140 nM.

Values taken from patent publication US7968570B2, “Isoindolone compounds and their use as metabotropic glutamate receptor potentiators” (AstraZeneca AB, priority 2004, dated 2011).
